Experimental data taken from patent US9216999B2, “Substituted pyrrolo[2,3-h][1,6]naphthyridines and compositions thereof as JAK inhibitors” (priority 2011, dated 2015).

Experiments:
Tyk2 = Tyk2 (Homo sapiens (Human), UniProt P29597); assay: Tyk2 enzyme assay (Assay Example^b 1)
JAK2 = JAK2 (Homo sapiens (Human), UniProt O60674); assay: JAK2 enzyme assay (Assay Example^b 1)
JAK1 = JAK1 (Homo sapiens (Human), UniProt P23458); assay: JAK1 enzyme assay (Assay Example^b 1)
JAK3 = JAK3 (Homo sapiens (Human), UniProt P52333); assay: JAK3 enzyme assay (Assay Example^b 1)
Sequence of JAK3 (P52333 whole entry): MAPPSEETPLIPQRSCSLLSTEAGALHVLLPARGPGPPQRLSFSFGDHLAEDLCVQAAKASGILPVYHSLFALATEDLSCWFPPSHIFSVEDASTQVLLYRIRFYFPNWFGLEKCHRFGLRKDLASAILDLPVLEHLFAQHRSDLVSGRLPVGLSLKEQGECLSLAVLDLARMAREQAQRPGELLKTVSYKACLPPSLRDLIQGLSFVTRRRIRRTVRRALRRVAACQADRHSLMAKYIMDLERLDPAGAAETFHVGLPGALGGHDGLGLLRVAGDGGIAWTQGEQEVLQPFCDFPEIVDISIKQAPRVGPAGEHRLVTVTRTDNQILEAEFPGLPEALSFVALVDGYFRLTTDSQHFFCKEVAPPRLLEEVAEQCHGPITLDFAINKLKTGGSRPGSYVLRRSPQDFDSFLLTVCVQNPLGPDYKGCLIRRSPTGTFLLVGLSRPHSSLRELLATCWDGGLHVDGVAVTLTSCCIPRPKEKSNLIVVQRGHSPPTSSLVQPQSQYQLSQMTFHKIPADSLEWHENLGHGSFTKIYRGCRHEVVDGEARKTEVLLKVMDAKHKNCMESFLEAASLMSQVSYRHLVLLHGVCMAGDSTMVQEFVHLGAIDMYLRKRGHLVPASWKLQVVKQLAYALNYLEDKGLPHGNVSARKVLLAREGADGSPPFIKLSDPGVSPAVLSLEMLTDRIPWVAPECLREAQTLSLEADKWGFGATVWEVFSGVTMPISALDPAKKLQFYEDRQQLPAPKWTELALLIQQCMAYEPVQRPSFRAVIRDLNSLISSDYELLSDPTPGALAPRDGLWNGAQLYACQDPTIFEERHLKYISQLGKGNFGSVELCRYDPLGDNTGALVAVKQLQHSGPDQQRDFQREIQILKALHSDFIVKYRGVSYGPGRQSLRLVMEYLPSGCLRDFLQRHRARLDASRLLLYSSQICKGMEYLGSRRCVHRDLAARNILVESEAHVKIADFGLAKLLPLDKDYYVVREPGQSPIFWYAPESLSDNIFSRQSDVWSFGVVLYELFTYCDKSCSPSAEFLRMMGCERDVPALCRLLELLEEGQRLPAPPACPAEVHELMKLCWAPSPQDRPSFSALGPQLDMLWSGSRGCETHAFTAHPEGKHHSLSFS

[1] = murine asthma model; cited from earlier work
[2] = monkey model of kidney transplantation; cited from earlier work
[3] = clinical tests; cited from earlier work
[4] = clinical tests; cited from earlier work; remark: listed apart in the source
[5] = IC50 (μM) TYK2, Table^b 79, ATP 100 μM
[6] = IC50 (μM) JAK2, Table^b 79, ATP 100 μM
[7] = IC50 (μM) JAK1, Table^b 78, ATP 100 μM
[8] = IC50 (μM) JAK3, Table^b 78, ATP 100 μM
[9] = IC50 (μM) TYK2, Table^b 80, ATP 100 μM
[10] = IC50 (μM) JAK2, Table^b 80, ATP 100 μM
[11] = IC50 (μM) JAK1, Table^b 80, ATP 100 μM
[12] = IC50 (μM) JAK3, Table^b 80, ATP 100 μM

Sequence of Tyk2 (P29597 whole entry): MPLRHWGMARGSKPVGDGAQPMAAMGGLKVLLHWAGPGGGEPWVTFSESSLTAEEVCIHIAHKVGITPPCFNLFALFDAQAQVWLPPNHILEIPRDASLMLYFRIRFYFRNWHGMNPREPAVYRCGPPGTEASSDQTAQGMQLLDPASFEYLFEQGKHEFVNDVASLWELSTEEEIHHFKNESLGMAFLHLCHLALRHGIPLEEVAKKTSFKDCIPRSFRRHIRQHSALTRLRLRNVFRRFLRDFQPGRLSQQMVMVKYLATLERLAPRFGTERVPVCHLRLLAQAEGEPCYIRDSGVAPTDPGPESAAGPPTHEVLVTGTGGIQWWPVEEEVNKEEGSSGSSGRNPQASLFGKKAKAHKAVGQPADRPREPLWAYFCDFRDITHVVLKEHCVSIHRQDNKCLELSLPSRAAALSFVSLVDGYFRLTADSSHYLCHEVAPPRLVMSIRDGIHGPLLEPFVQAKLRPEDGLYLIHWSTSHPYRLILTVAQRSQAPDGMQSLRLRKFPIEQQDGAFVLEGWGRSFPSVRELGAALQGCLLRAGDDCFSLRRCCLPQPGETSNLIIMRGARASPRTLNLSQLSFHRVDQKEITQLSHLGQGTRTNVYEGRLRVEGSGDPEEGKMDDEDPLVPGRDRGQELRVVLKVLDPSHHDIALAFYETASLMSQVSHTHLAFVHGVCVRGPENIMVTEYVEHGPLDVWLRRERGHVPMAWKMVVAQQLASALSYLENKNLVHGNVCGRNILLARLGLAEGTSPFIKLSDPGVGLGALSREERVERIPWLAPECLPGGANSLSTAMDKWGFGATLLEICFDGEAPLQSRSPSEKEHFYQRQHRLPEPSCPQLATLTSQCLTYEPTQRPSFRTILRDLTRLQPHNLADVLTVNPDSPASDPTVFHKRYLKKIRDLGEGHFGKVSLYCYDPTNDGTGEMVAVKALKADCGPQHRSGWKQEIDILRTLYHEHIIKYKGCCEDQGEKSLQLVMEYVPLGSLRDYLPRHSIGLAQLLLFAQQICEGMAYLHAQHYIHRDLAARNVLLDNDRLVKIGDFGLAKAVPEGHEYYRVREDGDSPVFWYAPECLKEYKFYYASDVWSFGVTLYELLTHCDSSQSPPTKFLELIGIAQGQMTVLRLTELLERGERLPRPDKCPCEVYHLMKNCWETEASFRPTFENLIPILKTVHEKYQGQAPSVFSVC

Compound `C[C@@H]1CCN(C(=O)CC#N)C[C@@H]1n1ccc(=O)c2cnc3[nH]ccc3c21` (racemic) [compound 7] has an IC50 (Tyk2; [5]) of 0.06 µM, an IC50 (JAK2; [6]) of 0.004 µM and an IC50 (JAK1; [7]) of 0.0017 µM. For the same compound, the IC50 (JAK3; [8]) was 0.0032 µM.

For `C[C@@H]1CCN(C(=O)CC#N)C[C@@H]1N(C)c1ncnc2[nH]ccc12` [CP-690,550], the airway inflammation [1] is listed as “suppressed”, the rejection [2] is listed as “suppressed rejection” and the “pathology of rheumatoid arthritis” value [3] is listed as “improved the pathology”. For the same compound, the pathology of psoriasis [4] was “improved the pathology”.

In the case of `O=C1NCc2cnc3[nH]ccc3c2N1C1CCNCC1` [compound 68], the IC50 (Tyk2; [9]) is reported as > 1 µM, the IC50 (JAK2; [10]) is reported as 2.4 µM and the IC50 (JAK1; [11]) is reported as 0.5 µM. For the same compound, the IC50 (JAK3; [12]) was 9.1 µM.

With `O=c1ccn(C2C3CC4CC2CC(O)(C4)C3)c2c1cnc1[nH]ccc12` (stereo not shown) [compound 107] the IC50 (Tyk2; IC50 (μM) TYK2, ATP 100 μM) was > 1 µM, the IC50 (JAK2; IC50 (μM) JAK2, ATP 100 μM) was 0.6 µM and the IC50 (JAK1; IC50 (μM) JAK1, ATP 100 μM) was 0.31 µM. For the same compound, the IC50 (JAK3; IC50 (μM) JAK3, ATP 100 μM) was 0.41 µM.

In the case of `C[C@@H]1CCN(S(=O)(=O)c2cccc(C(F)(F)F)c2)C[C@@H]1n1ccc(=O)c2cnc3[nH]ccc3c21` (racemic) [compound 33], the IC50 (JAK2; IC50 (μM) JAK2) is reported as 0.12 µM.

For `O=c1[nH]c(=O)n(C2CCN(CCNC3CCNCC3)CC2)c2c1cnc1[nH]ccc12` [compound 111], the IC50 (Tyk2; IC50 (μM) TYK2, ATP 100 μM) was > 1 µM, the IC50 (JAK2; IC50 (μM) JAK2, ATP 100 μM) was > 1 µM and the IC50 (JAK1; IC50 (μM) JAK1, ATP 100 μM) was 0.44 µM. The IC50 (JAK3; IC50 (μM) JAK3, ATP 100 μM) was > 1 µM.

In the case of `C[C@@H]1CCN(Cc2cccc(C#N)c2)C[C@@H]1n1ccc(=O)c2cnc3[nH]ccc3c21` (racemic) [compound 42], the IC50 (Tyk2; [9]) is reported as > 1 µM, the IC50 (JAK2; [10]) is reported as 0.15 µM and the IC50 (JAK1; [11]) is reported as 0.016 µM. The IC50 (JAK3; [12]) was 0.093 µM.

`O=c1[nH]c(=O)n(C2C3CC4CC2CC(O)(C4)C3)c2c1cnc1[nH]ccc12` (stereo not shown) [compound 104] gave an IC50 (Tyk2; IC50 (μM) TYK2, ATP 100 μM) of 0.38 µM, an IC50 (JAK2; IC50 (μM) JAK2, ATP 100 μM) of 0.046 µM and an IC50 (JAK3; IC50 (μM) JAK3, ATP 100 μM) of 0.38 µM.

With `Cn1c(=O)c2cnc3[nH]ccc3c2n(C2CCCCC2)c1=O` [Synthetic Example^b 138, 1-cyclohexyl-3-methyl-1H-pyrrolo[3′,2′:5,6]pyrido[4,3-d]pyrimidine-2,4(3H,7H)-dione] the IC50 (Tyk2; IC50 (μM) TYK2, ATP 100 μM) was > 1 µM, the IC50 (JAK2; IC50 (μM) JAK2, ATP 100 μM) was 0.42 µM and the IC50 (JAK1; IC50 (μM) JAK1, ATP 100 μM) was 0.04 µM. For the same compound, the IC50 (JAK3; IC50 (μM) JAK3, ATP 100 μM) was 0.51 µM.

For `O=c1ncn(C2CCCCC2)c2c1cnc1[nH]ccc12` [compound 13], the IC50 (Tyk2; [5]) was > 1 µM, the IC50 (JAK2; [6]) was 0.56 µM and the IC50 (JAK1; [7]) was 0.042 µM. The IC50 (JAK3; [8]) was 1.3 µM.

With `C[C@@H]1CCN(C(=O)CC2CC2)C[C@@H]1n1ccc(=O)c2cnc3[nH]ccc3c21` (racemic) [compound 8] the IC50 (Tyk2; [5]) was 1.5 µM, the IC50 (JAK2; [6]) was 0.075 µM and the IC50 (JAK1; [7]) was 0.026 µM. The IC50 (JAK3; [8]) was 0.041 µM.

Compound `O=C1NCc2cnc3[nH]ccc3c2N1C1CCN(Cc2cncs2)CC1` [compound 66] has an IC50 (Tyk2; [9]) of 0.99 µM, an IC50 (JAK2; [10]) of 0.14 µM and an IC50 (JAK1; [11]) of 0.08 µM.

For `C[C@@H]1CCN(Cc2ccccc2)C[C@@H]1n1ccc(=O)c2cnc3[nH]cc(Br)c3c21` (racemic) [compound 21], the IC50 (Tyk2; [9]) was > 1 µM, the IC50 (JAK2; [10]) was 1.3 µM and the IC50 (JAK1; [11]) was 0.56 µM. It also gave an IC50 (JAK3; [12]) of 0.82 µM.

`O=C1NCc2cnc3[nH]ccc3c2N1C1CCCCC1` [compound 17] gave an IC50 (Tyk2; [5]) of 0.093 µM, an IC50 (JAK2; [6]) of 0.02 µM and an IC50 (JAK3; [8]) of 0.69 µM.

With `O=C(c1ccc(Cl)s1)N1CCC(n2ccc(=O)c3cnc4[nH]ccc4c32)CC1` [compound 87] the IC50 (Tyk2; [9]) was > 1 µM, the IC50 (JAK2; [10]) was 0.38 µM and the IC50 (JAK1; [11]) was 0.025 µM. The IC50 (JAK3; [12]) was > 1 µM.

`O=c1ccn(C2CCN(Cc3ccc(Br)o3)CC2)c2c1cnc1[nH]ccc12` [compound 80] gave an IC50 (Tyk2; [9]) of 0.24 µM, an IC50 (JAK2; [10]) of 0.02 µM and an IC50 (JAK3; [12]) of 0.34 µM.

`C[C@@H]1CCN(C(=O)CC(F)(F)F)C[C@@H]1n1ccc(=O)c2cnc3[nH]ccc3c21` (racemic) [compound 9] showed an IC50 (Tyk2; [5]) of 0.15 µM, an IC50 (JAK2; [6]) of 0.0094 µM and an IC50 (JAK1; [7]) of 0.004 µM. The IC50 (JAK3; [8]) was 0.01 µM.

In the case of `O=c1[nH]c(=O)n(C2CCN(CCNCC3CC3)CC2)c2c1cnc1[nH]ccc12` [compound 110], the IC50 (JAK2; IC50 (μM) JAK2, ATP 100 μM) is reported as > 1 µM and the IC50 (JAK1; IC50 (μM) JAK1, ATP 100 μM) is reported as 0.42 µM.

In the case of `CC(C)(C)OC(=O)N1CCC(NCCN2CCC(n3c(=O)[nH]c(=O)c4cnc5[nH]ccc5c43)CC2)CC1` [compound 109], the IC50 (Tyk2; IC50 (μM) TYK2, ATP 100 μM) is reported as > 1 µM, the IC50 (JAK2; IC50 (μM) JAK2, ATP 100 μM) is reported as > 1 µM and the IC50 (JAK1; IC50 (μM) JAK1, ATP 100 μM) is reported as 0.92 µM. The IC50 (JAK3; IC50 (μM) JAK3, ATP 100 μM) was > 1 µM.
